The values that follow come from the PolyMetriX glass transition set.

`*O[Si](C)(C)O[Si](C)(C)Oc1ccc(-c2ccc(*)cc2)cc1` (repeat unit) had a glass transition temperature of -4.00 °C.
`*O[Si](Oc1ccc(-c2ccc(*)cc2)cc1)(c1ccccc1)c1ccccc1` (repeat unit) had a glass transition temperature of 132.2 °C.
`*Oc1c(C)cc(-c2cc(C)c(Oc3ccc(C(=O)c4ccc(*)cc4)cc3)c(CBr)c2)cc1CBr` (repeat unit) came in with a glass transition temperature of 158.17 °C.
The value for `*Oc1cc(C(C)(C)C)c(Oc2ccc(C(=O)Nc3ccc(C(c4ccc(NC(=O)c5ccc(*)cc5)cc4)(C(F)(F)F)C(F)(F)F)cc3)cc2)cc1C(C)(C)C` (repeat unit) was 268.00 °C; that for `*Oc1cc(C)c(C(c2cc(C(C)C)c(Oc3ccc(C(=O)c4ccc(*)cc4)cc3)cc2C)c2ccccc2C(=O)O)cc1C(C)C` (repeat unit) was 228.00 °C.
The figure for `*Oc1ccc(-c2ccc(Oc3ccc4ccccc4c3-c3c(*)ccc4ccccc34)c3ccccc23)c2ccccc12` (repeat unit) is 301.00 °C; for `*Oc1ccc(-c2ccc(Oc3cccc(*)n3)cc2)cc1` (repeat unit) it is 119.00 °C.
In the case of `*Oc1ccc(/C(=C/c2ccc(-c3ccc(/C=C(\c4ccccc4)c4ccc(OC(=O)c5ccc(C(*)=O)cc5)cc4)cc3)cc2)c2ccccc2)cc1` (repeat unit), the glass transition temperature amounted to 236.00 °C.
The figure for `*Oc1ccc(/C(=C/c2ccc(-c3ccc(/C=C(\c4ccccc4)c4ccc(OC(=O)c5cccc(C(*)=O)c5)cc4)cc3)cc2)c2ccccc2)cc1` (repeat unit) is 224.00 °C; for `*Oc1ccc(/N=N/c2ccc(Cc3ccc(/N=N/c4ccc(OC(=O)c5ccc(/N=N/c6ccc(C(*)=O)cc6)cc5)cc4)cc3[N+](=O)[O-])c([N+](=O)[O-])c2)cc1` (repeat unit) it is 160.00 °C; for `*Oc1ccc(C(=C(Cl)Cl)c2ccc(OC(*)=O)cc2)cc1` (repeat unit) it is 167.00 °C.
Compound `*Oc1ccc(C(=O)c2ccccc2)c(-c2cc(Oc3ccc(-c4ccc(*)cc4)cc3)ccc2C(=O)c2ccccc2)c1` (repeat unit) gave a glass transition temperature of 174.00 °C.
As for `*Oc1ccc(C(c2ccc(OC(*)=O)cc2)C2CC3CC2C2C4CCC(C4)C32)cc1` (repeat unit), the glass transition temperature was determined as 253.00 °C.
In the case of `*Oc1ccc(C(c2ccc(OC(*)=O)cc2)C2CCCCC2)cc1` (repeat unit), the glass transition temperature was 190.00 °C.
The value for `*Oc1ccc(C(c2ccc(OC(*)=S)cc2)c2cccc3ccccc23)cc1` (repeat unit) was 191.00 °C; that for `*Oc1ccc(C(c2ccc(OC(=O)c3ccc(Oc4ccc(C(*)=O)cc4)cc3)cc2)(C(F)(F)F)C(F)(F)F)cc1` (repeat unit) was 181.00 °C; that for `*Oc1ccc(C(c2ccccc2)(c2ccccc2)c2ccc(OC(*)=O)cc2)cc1` (repeat unit) was 213.00 °C.
Consider `*Oc1ccc(C(c2ccccc2)(c2ccccc2)c2ccc(Oc3ccc4c(=O)n5c6cc(-c7ccc8c(c7)nc7c9ccc(*)c%10cccc(c(=O)n87)c%109)ccc6nc5c5cccc3c45)cc2)cc1` (repeat unit), for which the glass transition temperature is 357.00 °C.
The figure for `*Oc1ccc(C2(c3ccc(OC(=O)C45CC6CC(CC(C(*)=O)(C6)C4)C5)cc3)c3ccccc3-c3ccccc32)cc1` (repeat unit) is 335.00 °C; for `*Oc1ccc(C2(c3ccc(OC(=O)c4ccc(C(*)=O)cc4)cc3)CCC3CCCCC3C2)cc1` (repeat unit) it is 275.00 °C.
In the case of `*Oc1ccc(C2(c3ccc(OC(=O)c4ccc(C(*)=O)cc4)cc3)CCCCC2)cc1` (repeat unit), the glass transition temperature came to 275.00 °C.
The value for `*Oc1ccc(C2(c3ccc(OC(=O)c4ccc(C(*)=O)cc4)cc3)c3ccccc3C(=O)c3ccccc32)cc1` (repeat unit) was 400.00 °C.
In turn, `*Oc1ccc(Oc2ccc(C(=O)Nc3ccc(Oc4ccc(-c5ccc(Oc6ccc(NC(=O)c7ccc(*)cc7)cc6)cc5)cc4)cc3)cc2)cc1C` (repeat unit) returned a glass transition temperature of 220.00 °C.
The figure for `*Oc1ccc(Oc2ccc(C(=O)c3ccc(-c4ccc(C(=O)c5ccc(*)cc5)cc4)cc3)cc2)cc1-c1ccc(S(=O)(=O)O)c(C)c1` (repeat unit) is 182.00 °C.
As for `*Oc1ccc(Oc2ccc(C(=O)c3ccc(Oc4ccc(Oc5ccc(C(=O)c6ccc(*)c(C(C)C)c6)cc5)cc4)cc3)cc2C(C)C)cc1` (repeat unit), the glass transition temperature came to 145.00 °C.
The figure for `*Oc1ccc(Oc2ccc(C(=O)c3cccc4cccc(C(=O)c5ccc(*)cc5)c34)cc2)cc1C(C)(C)C` (repeat unit) is 230.00 °C.
The value for `*Oc1ccc(S(=O)(=O)c2ccc(Oc3ccc(-c4ccc(Oc5ccc(C(=O)c6ccc(*)cc6)cc5)cc4)cc3)cc2)cc1` (repeat unit) was 206.00 °C.
The value for `*Oc1cccc(Oc2ccc(-c3ccc(*)cc3)cc2)c1C#N` (repeat unit) was 210.00 °C.
`*c1ccc(OC(=O)c2ccc(C(=O)Oc3ccc(C4(*)OCc5ccccc54)cc3)cc2)cc1` (repeat unit): the glass transition temperature is 312.00 °C.
The value for `*c1ccc(OC(=O)c2ccc(C(=O)Oc3ccc(C4(*)c5ccccc5Oc5ccccc54)cc3)cc2)cc1` (repeat unit) was 252.00 °C; that for `*c1ccc(OC(=O)c2ccc([Si](c3ccccc3)(c3ccccc3)c3ccc(C(=O)Oc4ccc(C5(*)OC(=O)c6ccccc65)cc4)cc3)cc2)cc1` (repeat unit) was 250.00 °C; that for `*c1ccc(OC(=O)c2cccc(C(=O)Oc3ccc(-c4nc5ccccc5nc4*)cc3)c2)cc1` (repeat unit) was 245.00 °C.
The value for `*c1ccc(OC(=O)c2cccc(C(=O)Oc3ccc(C4(*)C(=O)Nc5c(Cl)cc(Cl)cc54)cc3)c2)cc1` (repeat unit) was 270.00 °C.
`*c1ccc(Oc2cc(C(C)(C)C)ccc2Oc2ccc(-n3c(=O)c4cc5c(=O)n(*)c(=O)c5cc4c3=O)cc2)cc1` (repeat unit) had a glass transition temperature of 321.00 °C.
In turn, `*c1ccc(Oc2ccc(-c3ccc(Oc4ccc(N5C(=O)c6ccc(Oc7ccc(C(c8ccc(Oc9ccc%10c(c9)C(=O)N(*)C%10=O)cc8)(C(F)(F)F)C(F)(F)F)cc7)cc6C5=O)cc4)cc3)cc2)cc1` (repeat unit) had a glass transition temperature of 217.00 °C.
With `*c1ccc(Oc2ccc(Oc3ccc(Oc4ccc(-c5cnc6cc(-c7ccc8nc(*)cnc8c7)ccc6n5)cc4)cc3)cc2)cc1` (repeat unit), the glass transition temperature amounted to 133.00 °C.
`*c1ccc(Oc2ccc(Oc3ccc(Oc4ccc(N5C(=O)c6ccc(Oc7ccc(-c8ccc(Oc9ccc%10c(c9)C(=O)N(*)C%10=O)cc8)cc7)cc6C5=O)cc4)cc3)cc2)cc1` (repeat unit) gave a glass transition temperature of 208.00 °C.
In turn, `*c1ccc(Oc2cccc(Oc3ccc(N4C(=O)c5ccc(Oc6ccc(-c7ccc(Oc8ccc9c(c8)C(=O)N(*)C9=O)cc7)cc6)cc5C4=O)cc3)c2)cc1` (repeat unit) gave a glass transition temperature of 205.00 °C.
In turn, `*c1cccc(N2C(=O)c3ccc(Oc4ccc(-c5ccc(Oc6ccc7c(c6)C(=O)N(*)C7=O)cc5)cc4)cc3C2=O)c1` (repeat unit) came in with a glass transition temperature of 247.00 °C.
